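Compound exposure: 48 hours, 5 concentrations, 96-well plates. The concentration for full growth arrest is given as TGI.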
How the values were obtained:
Assay in all cases: NCI-60 cell line screen, 48 h
[1] = system: EKVX NSCLC
[2] = system: HOP-62 NSCLC
[3] = system: IGROV1 ovarian
[4] = system: M14 melanoma
[5] = system: SK-OV-3 ovarian
[6] = system: SW-620 colon
[7] = system: UACC-257 melanoma
[8] = system: UO-31 renal
[9] = system: NCI-H460 lung
[10] = system: UACC-62 melanoma

SMILES	TGI [1] [µM]	TGI [2] [µM]	TGI [3] [µM]	TGI [4] [µM]	TGI [5] [µM]	TGI [6] [µM]	TGI [7] [µM]	TGI [8] [µM]	TGI [9] [µM]	TGI [10] [µM]
O=C1NC(N2CCOCC2)=N/C1=C\c1ccccc1O	> 100	> 100	> 100	> 100	> 100	> 100	> 100	> 100		
COc1cccc(/C=C/C2=NN(c3cccc(S(=O)(=O)O)c3)C3(C2)SCC(=O)N3c2nc3ccccc3s2)c1 (centres undefined)	> 100		> 100	> 100		> 100	> 100	> 100	> 100	> 100
CC(NCCS(=O)(=O)O)C(=O)O (centres undefined)	> 100	> 100	> 100		> 100	> 100	> 100	> 100	> 100	> 100
CN(C)CCOc1ccc(-c2c(Oc3ccc(Cl)cc3)c(=O)oc3ccccc23)cc1	37.6	87.8	19.2	3.12	65.7	> 62		> 28.9	27.4	32.1
Nc1cc(CO)cc(Nc2c3ccccc3nc3occc23)c1	> 100	> 100	90.8	93.2	> 100		> 100	> 100	64.3	86.8
Cc1nnc2c3c(-c4ccccc4)c(-c4ccccc4)oc3nc(N(C)C)n12	> 100		> 100	> 100	> 100	> 100	> 100	> 100		> 100
CC1CC[C@]2(C(=O)O)CCC3(C)C(=C2[C@H]1C)C=CC1[C@@]2(C)CC[C@H](O)C(C)(C)C2CC[C@]13C (some centres undefined)	> 100	74.8	98.2	> 100	45.5	> 100	> 100		> 100	> 100
CC(NC(=O)c1ccc(OP(=O)(OCC2=CC(=O)c3ccccc3C2=O)N(C)CCCCCl)cc1)c1ccc(OCC2CCCCC2)c(C(N)=O)c1 (centres undefined)		32.9	21.6	13	48.8	38.3	18.6	21.9	22.9	21.4
COc1cc(C(C#N)NNC(=O)c2ccccc2O)ccc1O (centres undefined)		> 100	> 100	> 100	> 100	> 100	92.9	3.28	> 100	5.22
CC1=C(C#N)S(=O)(=O)c2c(oc(C)c2C)N1	> 100	> 100		> 100	> 100	> 100	> 100	> 100	> 100	> 100
CCCCNC(=S)Nc1nc(C(=O)NNS(=O)(=O)c2ccccc2)cs1	> 100	> 100	> 100	> 100	> 100		53.7	85.3		59.2
CC1=C2N3C[C@@H](n4c(=O)n(C)c(=O)n43)C23CCC1n1c(=O)n(C)c(=O)n13	> 100	> 100	> 100	> 100		54.8	> 100	> 100	> 100	> 100
COc1ccc(CNc2nc3ccccc3nc2-c2cccs2)cc1	> 100	> 100	> 100		> 100	> 100	> 100	71.1	> 100	> 100
CC1(C)C2CCC1C(=O)C(C=O)C2 (centres undefined)		> 100	> 100	> 100	> 100	> 100	> 100	> 100	> 100	> 100
N#CC(c1ccccc1)c1cccc2ccccc12 (centres undefined)	> 100	> 100	> 100	96.4		> 100	67.3	> 100	> 100	> 100
CSc1n[n+](C)cc(N)c1N	> 100	> 100	> 100	> 100	> 100	> 100	> 100	> 100		> 100
CN(C)Cc1cc(N=Nc2ccc(Cl)c(Cl)c2)ccc1O	25.6	15.3	15.9	31.9		23.1	30.5	11.9	19.8	19.4
O=C(CCCC(=O)N1CC(CCl)c2ccc([N+](=O)[O-])cc21)N1CC(CCl)c2ccc([N+](=O)[O-])cc21 (centres undefined)		> 100		> 100	> 100	> 100	> 100	> 100	> 100	> 100
CC(Nc1cc(Cl)cc(Cl)c1)c1ccncc1 (centres undefined)	59.9	33.5	31.8	33.4		70.5	58.6	27.3	73.3	
CC(C)n1c(=O)c2nn3c(=O)n(C(C)C)c(=O)c3nn2c1=O	> 100	> 100	> 100	> 100	> 100	> 100	> 100		> 100	> 100
O=C(CSc1nc2ccc(I)cc2c(=O)n1Cc1ccccc1)Nc1ccc(Br)cc1	38.9	> 100	> 100	> 100	> 100	> 100		0.382		> 100
C=C1CCCCCCCCCCC1S(=O)c1ccccc1 (centres undefined)	> 100	> 100	33.4	92.2	96.4		> 100	39.6	> 100	> 100
c1ccc(N=NNNc2ccc(-c3nc4ccccc4[nH]3)cc2)cc1	> 100	> 100	> 100	> 100	> 100	> 100	> 100	> 100	> 100	
CCN(CC)CCNc1ccc(N=Nc2ccc(S(N)(=O)=O)cc2)c2ccccc12	41.2	> 100	28.8	23.3		14.6	31.4	20.8	> 100	25.7

Source: PubChem BioAssay (NCI)
